Patent US5693668A, “Acetylcholinesterase inhibitors” (priority 1989, dated 1997)
Read-outs that look alike come from different tables or passages of the source.

Type: in vitro ADME, hairless mouse (Outbred Nude mouse)
Conditions: for skin permeation rate: 50% w/w drug loading
Procedure: An in vitro excised hairless mouse skin/modified Franz Diffusion Cell model was used to evaluate skin permeability of neat MDL 73,745, the title compound of Example 1, and permeation profile of MDL 73,745 from various prototype transdermal delivery systems. Prototype transdermal delivery systems containing MDL 73,745 were prepared in various acrylic, silastic, ethylene vinyl acetate copolymer, and rubber based pressure sensitive adhesives and evaluated in the in vitro skin permeation cell model.
In vitro skin permeation model: For this study an in vitro finite-dose glass diffusion cell (modified Franz Diffusion Cell)/freshly excised hairless mouse skin model was used. The diffusion consists of two parts: (i) a receptor compartment which is an upright reservoir jacketed by a glass chamber on the outside. Experiments were conducted at 37° C. by circulating thermostatically controlled water at 37° C. in this jacket and (ii) donor cap, which is clamped together with the receptor compartment with a metal clamp. A piece of skin/(transdermal formulation) is sandwiched between the donor and the receptor compartments and clamped together. Sampling from the receptor compartment is taken at predetermined time intervals through the sampling port.
Hairless mouse: Outbred Nude mouse {CRL NU/NU (CD1) BR, 6-8 weeks old, male} from Charles River, Mass.
Excised skin: Immediately following sacrifice by CO2 gas, a portion (3.5×3.5 cm) of the full-thickness abdominal skin was carefully excised from the hairless mouse. The dermal side of the skin was carefully cleaned of any adhering subcutaneous tissue and/or blood vessels. Extreme care was taken not to scratch or damage the stratum corneum. Before mounting onto the diffusion cell, each piece of skin was carefully inspected to insure that the skin was not damaged.
Dermal elution media: A 5% solution of polyethylene glycol 20 Oleyl ether (Trycol®, Emery) in 0.9% sodium chloride was used as the receptor medium for the modified Franz Diffusion Cells. […] Temperature of the dermal elution media was maintained at 37° C. using a thermostated constant temperature circulating water bath.
Skin permeation profile from neat MDL 73,745 and from Prototype formulations: Full-thickness skin, prepared freshly as outlined above, was mounted in a modified Franz Diffusion Cell with the stratum corneum side facing upward. To study the permeation profile of neat MDL 73,745, 50 μl of MDL 73,745 was uniformly applied onto the stratum corneum. The donor cap was placed over the skin and the whole assembly was then securely clamped together. The donor cap was covered with a piece of aluminum foil to reduce the volatilization of MDL 73,745. To evaluate the skin permeation profile of MDL 73,745 from a prototype transdermal formulation, a unit of prototype transdermal system (about 4.9 cm^2 circular) containing MDL 73,745 was placed onto the skin with the drug releasing side in intimate contact with the stratum corneum (slight pressure was applied to insure good contact). The donor cap was placed over the skin and the whole assembly was then securely clamped together.
Dermal elution medium (5% w/w Trycol® in normal saline) was then introduced into the receptor compartment through the sampling port. At predetermined time intervals, the entire volume of the receptor solution was withdrawn and immediately replaced with the same volume of fresh, drug free dermal elution medium (5% w/w Trycol® in normal saline), maintained at 37° C. The concentration of MDL 73,745 was determined by a sensitive HPLC method described under Analytical Method section below.
Analytical Method: An automated high performance liquid chromatograph equipped with a gradient pump (Waters Model 600E), autoinjector/sampler (Waters, Model 715 WISP), and a variable wavelength UV detector (Waters, Model 490) was used. The autoinjector/sampler was maintained at 2° C. to reduce possible evaporation/degradation of MDL 73,745 in the sample. […]

With `C[Si](C)(C)c1cccc(C(=O)C(F)(F)F)c1` [MDL 73,745, 2,2,2-Trifluoro-1-(3-trimethylsilylphenyl) ethanone] the “rate of transdermal delivery” value (3M acrylic adhesive #9871, 50% w/w drug loading) was 13.01 μg/cm^2 /hr, the “rate of transdermal delivery” value (3M acrylic adhesive #9871, 60% w/w drug loading) was 21.04 μg/cm^2 /hr and the transdermal delivery profile (3M acrylic adhesive #9871 prototypes) was “constant, zero-order profile”. The skin permeation rate (prototype in Gelva 737) was 12.95 μg/cm^2 /hr, the skin permeation rate (prototype in Gelva 788) was 8.63 μg/cm^2 /hr and the skin permeation profile (DuroTak 72-9718 rubber based PSA prototypes) was “constant, zero-order profile”. For the same compound, the “rate of transdermal delivery” value (DuroTak 72-9718 rubber based PSA, 20% w/w drug loading) was 12.92 μg/cm^2 /hr, the “rate of transdermal delivery” value (Eva-Tak 72-9660 prototype containing 50% drug) was 33.86 μg/cm^2 /hr and the “rate of transdermal delivery” value (Eva-Tak 72-9660 prototype containing 60% drug) was 20.59 μg/cm^2 /hr. The transdermal delivery profile (Eva-Tak 72-9660 prototypes, throughout duration of patch application) was “controlled, zero-order fashion”, the “rate of transdermal delivery” value (Nacor 38-4515 prototype containing 50% w/w drug) was 19.18 μg/cm^2 /hr and the “transport profile through skin” value (neat MDL 73,745) was “controlled zero order fashion”. The “rate of transdermal delivery” value (neat MDL 73,745, 50 μl on stratum corneum) was 208.21 μg/cm^2 /hr and the “period of controlled, zero-order transdermal delivery” value (prototypes in various acrylic PSA) was “at least 24 hours”.
